Experiments:
Female C57BL/6 mice = assay: MOGp35-55-induced disease activity model in mice (oral gavage, daily disease activity score); format: in vivo; conditions: single agent; for maximal extent and duration of disease activity: compared with control animals; for onset of disease symptoms: low and high doses, compared to animals that receive vehicle
[1] = tested on: inducible nitric oxide synthetase (i-NOS); conditions: microglia and astrocytes; cited from earlier work
cytokine TNFα = conditions: microglia and astrocytes; cited from earlier work
[2] = tested on: monocyte chemoattractant protein 1 (MCP1); conditions: human peripheral blood mononuclear cells or cultured endothelial cells; cited from earlier work

Row | Structure (SMILES) | maximal extent and duration of disease activity (Female C57BL/6 mice) | onset of disease symptoms (Female C57BL/6 mice) | inhibition of inducible nitric oxide synthetase (i-NOS) [1] | inhibition of the cytokine TNFα (cytokine TNFα) | inhibition of MCP1 production [2]
1 | CO[C@@H]1COCC[C@@H]1N[C@@H]1CC[C@@](C(=O)N2CCc3ncc(C(F)(F)F)cc3C2)(C(C)C)C1 [Compound 1, N-((1R,3S)-3-isopropyl-3-{[3-(trifluoromethyl)-7,8-dihydro-1,6-naphthyridin-6(5H)-yl]carbonyl}cyclopentyl)-N-[(3S,4S)-3-methoxytetrahydro-2H-pyran-4-yl]amine] | reduced compared with control animals | delayed in a dose-dependent manner |  |  | 
2 | CC(C)[C@]1(C(=O)N2COc3ccc(C(F)(F)F)cc3C2)CC[C@@H](N2CC[C@@H](c3cccc(C(=O)O)c3)[C@H](C)C2)C1 (single isomer, unassigned) [Compound 4, 3-[(3S,4R or 3R,4S)-1-((1R,3S)-3-Isopropyl-3-{[6-(trifluoromethyl)-2H-1,3-benzoxazin-3(4H)-yl]carbonyl}cyclopentyl)-3-methylpiperidin-4-yl]benzoic acid] | reduced compared with control animals | delayed in a dose-dependent manner |  |  | 
3 | CC(C)c1c(C(=O)Nc2ccccc2)c(-c2ccccc2)c(-c2ccc(F)cc2)n1CC[C@@H](O)C[C@@H](O)CC(=O)O [atorvastatin] | reduced compared with control animals | delayed in a dose-dependent manner |  |  | 
4 | CC[C@H](C)C(=O)O[C@H]1C[C@@H](C)C=C2C=C[C@H](C)[C@H](CC[C@@H]3C[C@@H](O)CC(=O)O3)[C@H]21 [Lovastatin, lovastatin] |  |  | inhibit | inhibit | inhibit

From patent publication US20080194548A1, “Drug Combination Therapy and Pharmaceutical Compositions for Treating Inflammatory Disorders” (priority 2005, published 2008)
